The values below come from paper PMC12102759 (Protein Science : A Publication of the Protein Society, 2025).

In one experiment the test system is G3BP1 NFT2. Format: binding, human. To be noted: library DMS-CoV, bait G3BP1 NFT2, prey N, listed as aa = residue placed at this position, column sums to 1.
In another experiment the test system is PABPC1 PABC. Format: binding, human. The following applies: DMS-BM library, bait PABPC1 PABC, row aa = residue at this position.
Setting [1] is: prey ATXN2, peptide KSTLNPNAKEFNPRSF, F = wild type.
Where [2] appears, read: prey ATXN2, TLNPNAKEFNPRSF(averaged) over the two overlapping peptides, F = wild type.

For APRITFGGPSDSTGSN P2K (AKRITFGGPSDSTGSN), the “DMS PSSM value, P (position 2)” value with G3BP1 NFT2 (peptide APRITFGGPSDSTGSN) is on record as 0.
For the substance “RNAPRITFGGPSDSTG S12Q (RNAPRITFGGPQDSTG)”, the “DMS PSSM value, S (position 12)” value in the experiment on G3BP1 NFT2 (peptide RNAPRITFGGPSDSTG) is 0.
Consider RNAPRITFGGPSDSTG A3N (RNNPRITFGGPSDSTG), for which, in the experiment with G3BP1 NFT2 (peptide RNAPRITFGGPSDSTG), the “DMS PSSM value, A (position 3)” value was found to be 0.
As for “APRITFGGPSDSTGSN D11E (APRITFGGPSESTGSN)”, the “DMS PSSM value, D (position 11)” value in the experiment on G3BP1 NFT2 (peptide APRITFGGPSDSTGSN) was 0.08423.
Regarding “APRITFGGPSDSTGSN T13A (APRITFGGPSDSAGSN)”, the “DMS PSSM value, T (position 13)” value in the experiment on G3BP1 NFT2 (peptide APRITFGGPSDSTGSN) was determined as 0.02642.
In the case of APRITFGGPSDSTGSN P9N (APRITFGGNSDSTGSN), the “DMS PSSM value, P (position 9)” value in the experiment with G3BP1 NFT2 (peptide APRITFGGPSDSTGSN) is on record as 0.
Take RNAPRITFGGPSDSTG P4E (RNAERITFGGPSDSTG): the “DMS PSSM value, P (position 4)” value in the experiment on G3BP1 NFT2 (peptide RNAPRITFGGPSDSTG) was found to be 0.9115.
As to “RNAPRITFGGPSDSTG G16S (RNAPRITFGGPSDSTS)”, the “DMS PSSM value, G (position 16)” value in the experiment with G3BP1 NFT2 (peptide RNAPRITFGGPSDSTG) is 0.
As to RNAPRITFGGPSDSTG N2V (RVAPRITFGGPSDSTG), the “DMS PSSM value, N (position 2)” value in the experiment on G3BP1 NFT2 (peptide RNAPRITFGGPSDSTG) turned out to be 0.
Consider RNAPRITFGGPSDSTG T7E (RNAPRIEFGGPSDSTG), for which the “DMS PSSM value, T (position 7)” value in the experiment on G3BP1 NFT2 (peptide RNAPRITFGGPSDSTG) is 1.
For the substance “RNAPRITFGGPSDSTG S14I (RNAPRITFGGPSDITG)”, the “DMS PSSM value, S (position 14)” value with G3BP1 NFT2 (peptide RNAPRITFGGPSDSTG) was determined as 0.
Regarding “RNAPRITFGGPSDSTG D13H (RNAPRITFGGPSHSTG)”, in the experiment with G3BP1 NFT2 (peptide RNAPRITFGGPSDSTG), the “DMS PSSM value, D (position 13)” value is 0.
On to “RNAPRITFGGPSDSTG S12M (RNAPRITFGGPMDSTG)”, for which the “DMS PSSM value, S (position 12)” value in the experiment with G3BP1 NFT2 (peptide RNAPRITFGGPSDSTG) stood at 0.
For APRITFGGPSDSTGSN F6D (APRITDGGPSDSTGSN), the “DMS PSSM value, F (position 6)” value in the experiment with G3BP1 NFT2 (peptide APRITFGGPSDSTGSN) came out at 0.
Take RNAPRITFGGPSDSTG N2E (REAPRITFGGPSDSTG): the “DMS PSSM value, N (position 2)” value with G3BP1 NFT2 (peptide RNAPRITFGGPSDSTG) is reported as 0.4748.
Regarding “RNAPRITFGGPSDSTG S12D (RNAPRITFGGPDDSTG)”, the “DMS PSSM value, S (position 12)” value in the experiment with G3BP1 NFT2 (peptide RNAPRITFGGPSDSTG) is on record as 0.
For “RNAPRITFGGPSDSTG T15E (RNAPRITFGGPSDSEG)”, the “DMS PSSM value, T (position 15)” value with G3BP1 NFT2 (peptide RNAPRITFGGPSDSTG) came out at 0.
For the substance “RNAPRITFGGPSDSTG S14P (RNAPRITFGGPSDPTG)”, the “DMS PSSM value, S (position 14)” value with G3BP1 NFT2 (peptide RNAPRITFGGPSDSTG) is reported as 0.
Consider APRITFGGPSDSTGSN P2A (AARITFGGPSDSTGSN), for which, in the experiment on G3BP1 NFT2 (peptide APRITFGGPSDSTGSN), the “DMS PSSM value, P (position 2)” value was determined as 0.004798.
Turning to RNAPRITFGGPSDSTG I6P (RNAPRPTFGGPSDSTG), the “DMS PSSM value, I (position 6)” value with G3BP1 NFT2 (peptide RNAPRITFGGPSDSTG) was found to be 0.
On to “KSTLNPNAKEFNPRSF F16T (KSTLNPNAKEFNPRST)”, for which the “DMS-derived PSSM value, position F16” value in the experiment with PABPC1 PABC (setting [1]) was 0.02121.
Regarding “TLNPNAKEFNPRSFSQ N10F (TLNPNAKEFFPRSFSQ)”, the “DMS-derived PSSM value, position N10” value in the experiment with PABPC1 PABC (prey ATXN2, peptide TLNPNAKEFNPRSFSQ, N = wild type) is given as 0.002727.
Take TLNPNAKEFNPRSFSQ L2V (TVNPNAKEFNPRSFSQ): in the experiment with PABPC1 PABC (prey ATXN2, peptide TLNPNAKEFNPRSFSQ, L = wild type), the “DMS-derived PSSM value, position L2” value is 0.
In the case of “TLNPNAKEFNPRSF(averaged) N10F (TLNPNAKEFFPRSF)”, the “DMS-derived PSSM value (averaged), position N10” value with PABPC1 PABC (prey ATXN2, TLNPNAKEFNPRSF(averaged) over the two overlapping peptides, N = wild type) worked out at 0.02798.
In the case of “KSTLNPNAKEFNPRSF F11I (KSTLNPNAKEINPRSF)”, the “DMS-derived PSSM value, position F11” value with PABPC1 PABC (setting [1]) came out at 0.
Consider “KSTLNPNAKEFNPRSF F11H (KSTLNPNAKEHNPRSF)”, for which, in the experiment with PABPC1 PABC (setting [1]), the “DMS-derived PSSM value, position F11” value is reported as 0.
Consider “TLNPNAKEFNPRSF(averaged) K7V (TLNPNAVEFNPRSF)”, for which the “DMS-derived PSSM value (averaged), position K7” value with PABPC1 PABC (prey ATXN2, TLNPNAKEFNPRSF(averaged) over the two overlapping peptides, K = wild type) turned out to be 0.003972.
Regarding “TLNPNAKEFNPRSF(averaged) F9T (TLNPNAKETNPRSF)”, the “DMS-derived PSSM value (averaged), position F9” value in the experiment on PABPC1 PABC (setting [2]) worked out at 0.02947.
For the substance “KSTLNPNAKEFNPRSF S15R (KSTLNPNAKEFNPRRF)”, in the experiment on PABPC1 PABC (prey ATXN2, peptide KSTLNPNAKEFNPRSF, S = wild type), the “DMS-derived PSSM value, position S15” value amounted to 0.007958.
For “TLNPNAKEFNPRSF(averaged) E8F (TLNPNAKFFNPRSF)”, the “DMS-derived PSSM value (averaged), position E8” value in the experiment on PABPC1 PABC (prey ATXN2, TLNPNAKEFNPRSF(averaged) over the two overlapping peptides, E = wild type) is 0.
Take KSTLNPNAKEFNPRSF N7F (KSTLNPFAKEFNPRSF): the “DMS-derived PSSM value, position N7” value in the experiment with PABPC1 PABC (prey ATXN2, peptide KSTLNPNAKEFNPRSF, N = wild type) worked out at 0.07049.
Turning to “TLNPNAKEFNPRSF(averaged) F14V (TLNPNAKEFNPRSV)”, the “DMS-derived PSSM value (averaged), position F14” value with PABPC1 PABC (setting [2]) came to 0.12.
In the case of “KSTLNPNAKEFNPRSF R14H (KSTLNPNAKEFNPHSF)”, in the experiment on PABPC1 PABC (prey ATXN2, peptide KSTLNPNAKEFNPRSF, R = wild type), the “DMS-derived PSSM value, position R14” value was 0.02913.
Take “TLNPNAKEFNPRSF(averaged) L2F (TFNPNAKEFNPRSF)”: the “DMS-derived PSSM value (averaged), position L2” value with PABPC1 PABC (prey ATXN2, TLNPNAKEFNPRSF(averaged) over the two overlapping peptides, L = wild type) is given as 0.05162.
As to “TLNPNAKEFNPRSFSQ F14W (TLNPNAKEFNPRSWSQ)”, the “DMS-derived PSSM value, position F14” value in the experiment on PABPC1 PABC (prey ATXN2, peptide TLNPNAKEFNPRSFSQ, F = wild type) amounted to 0.01201.
Regarding TLNPNAKEFNPRSFSQ P4H (TLNHNAKEFNPRSFSQ), in the experiment on PABPC1 PABC (prey ATXN2, peptide TLNPNAKEFNPRSFSQ, P = wild type), the “DMS-derived PSSM value, position P4” value is given as 0.0297.
